# Data taken from US11731964B2, “Benzamide antibacterial agents” (Purdue Research Foundation, priority 2018, dated 2023).
# Like-named read-outs stand apart in the source and are kept apart here.
# Columns and labels:
# VISA NRS1 = experiment: MIC and MBC; type: cell-based, S. aureus; conditions: Staphylococcus aureus, VISA NRS1
# Experimental: (§1) Bacteria were cultured in cation-adjusted Mueller Hinton Broth (for strains in Tables 1 and 4) or Brain Heart Infusion broth (for Enterococcus faecium) or Tryptic Soy Broth (all other bacteria) in a 96-well plate at 37° C. for at least 20 hours. The MIC was classified as the lowest concentration where no visual growth of bacteria was observed. The minimum bactericidal concentration (MBC) was tested by spotting 4 μL from wells with no growth onto Tryptic Soy Agar (TSA) plates. Plates were incubated at 37° C. for at least 18 hours before recording the MBC.
# VRSA VRS12 = experiment: MIC and MBC; type: cell-based, S. aureus; conditions: Staphylococcus aureus, VRSA VRS12
# Experimental: as §1
# MRSA NRS119 = experiment: MIC and MBC; type: cell-based, Staphylococcus aureus; conditions: Staphylococcus aureus, MRSA NRS119
# Experimental: as §1
# MRSA ATCC 33592 = experiment: MIC, broth microdilution; type: cell-based; conditions: Staphylococcus aureus; MRSA ATCC 33592; read-out: MIC
# In short: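 Broth microdilution, 37 °C for ≥20 h, in cation-adjusted Mueller Hinton, Brain Heart Infusion (E. faecium) or Tryptic Soy Broth depending on strain; MIC is lowest concentration without visible growth. MBC by spotting clear wells onto Tryptic Soy Agar, read after ≥18 h at 37 °C.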
# [1] = system: Acinetobacter baumannii ATCC 19606; experiment: MIC against Gram-negative pathogens; type: cell-based
# Experimental: as §1
# [2] = system: Pseudomonas aeruginosa ATCC 15442; experiment: MIC against Gram-negative pathogens; type: cell-based
# Experimental: as §1
# Escherichia coli BW25113 = experiment: MIC against Gram-negative pathogens; type: cell-based; conditions: Escherichia coli BW25113 (wild-type); read-out: MIC
# Experimental: as §1
# [3] = system: Klebsiella pneumoniae BAA-1706; experiment: MIC against Gram-negative pathogens; type: cell-based
# Experimental: as §1
smiles,measurement,setting,value
CC1CC(C)CN(S(=O)(=O)c2ccc(C(=O)Nc3nnc(-c4cccs4)o3)cc2)C1 (centres unmarked) [Compound F6],MBC,VISA NRS1; read-out: MBC,> 128 µg/mL
same,MIC,VISA NRS1; read-out: MIC,2 µg/mL
same,MBC,VRSA VRS12; read-out: MBC,> 128 µg/mL
same,MIC,VRSA VRS12; read-out: MIC,2 µg/mL
same,MBC,MRSA NRS119; read-out: MBC,> 128 µg/mL
same,MIC,MRSA NRS119; read-out: MIC,2 µg/mL
same,MIC,MRSA ATCC 33592,2 µg/mL
same,MIC,[1],not active
same,MIC,"[1]; ATCC19606, read-out: MIC",128 µg/mL
same,MIC,[2],not active
same,MIC,"[2]; ATCC15442, read-out: MIC",> 128 µg/mL
same,MIC,Escherichia coli BW25113,> 128 µg/mL
same,MIC,[3],not active
same,MIC,"[3]; BAA1706, read-out: MIC",> 128 µg/mL
